{"source": "patent US7981444B2", "about": "“Dendritic polymers with enhanced amplification and interior functionality” (Dendritic Nanotechnologies, Inc., priority 2004, dated 2011)", "key": {"[1]": {"experiment": "Thermal Gravimetric Analysis (TGA)", "assay_type": "physicochemical", "details": "in nitrogen, scan 20 to 520° C., ramp rate 10 degrees per minute", "method": "Thermal Gravimetric Analysis (TGA)\nThermal gravimetric data were obtained on a Universal V3.9A TA Instrument. Temperature scan range was from 20 to 520° C. with a ramp rate of 10 degrees per minute. Sample sizes were typically about 10 mg of solid product.\nIn comparison, curves 1 and 2 show the thermal degradation profiles of products of Examples 7D and 13, respectively.\nTGA Under Same Conditions as Comparative Example I for Various Dendrimers of Formula (I) and PAMAM"}, "[2]": {"details": "cited from earlier work"}}}
{"molecule": "COC(=O)C1CC(=O)N(CCN(CCN2CC(C(=O)OC)CC2=O)CC(O)Cn2c(=O)n(CC(O)CN(CCN3CC(C(=O)OC)CC3=O)CCN3CC(C(=O)OC)CC3=O)c(=O)n(CC(O)CN(CCN3CC(C(=O)OC)CC3=O)CCN3CC(C(=O)OC)CC3=O)c2=O)C1", "note": "(stereo not shown) [Example 33]", "values": [{"measurement": "Onset Temp. (° C.)", "setting": "[1]", "value": 320, "unit": "°C"}, {"measurement": "Temp. (° C.) at 50% wt loss", "setting": "[1]", "value": 407, "unit": "°C"}, {"measurement": "Temp. (° C.) at Residue", "setting": "[1]", "value": "500+ ° C."}]}
{"molecule": "tris(hydroxymethyl)amino methane", "values": [{"measurement": "pKa value", "setting": "[2]", "value": 8.10}]}
